In patent US5100875A, “Novel peptides having plateler aggregation inhibitory activity” (Institut National de la Sante et de la Recherche Medicale …, priority 1986, dated 1992) one finds IC50 data, which are given here for four molecules.

Assay [1] concerns the target T1, platelet fibrinogen receptor (Homo sapiens, UniProt P05106+P08514).
T1 construct: endogenous in cells; host or cells: washed human blood platelets, stimulated with ADP
Kind of assay: Inhibition of platelet-fibrinogen binding (125I-fibrinogen, ADP-stimulated washed platelets). The conditions noted are these: 4×10^7 human platelets, 125I-fibrinogen 0.1×10^-6 M, ADP 5×10^-6 M, CaCl2 0.5 mM, 15 mn incubation. The method, then: The platelets were isolated from 60 ml of human blood collected in the anticoagulant buffer ACD in a ratio of 1 volume of ACD to 6 volumes of blood.
The blood is then centrifuged for 20 mn at a 1,000 r/mn (JOUAN E 96 centrifuge) at room temperature.
The PRP (plasma rich in platelets) is decanted and treated with 0.1 μM PGE1, then centrifuged for 15 mn at 2,000 r/mn.
The platelets obtained in the pellet are then taken up in 1 ml of Tyrode buffer-albumin, pH 7.2, prepared with the following composition:
The platelets are washed on a column of Sepharose CL 2B using Tyrode buffer-albumin, pH 7.2, then the platelets are recovered and diluted to a concentration of 2×10^8 platelets/ml.
The assays are carried out on 4×10^7 platelets in the presence of CaCl2 (0.5 mM), ^125 I-fibrinogen 0.1×10^-6 M) and different concentrations of peptide, and the stimulation of the platelets is induced by ADP (5×10^-6 M). After incubation for 15 mn and deposition on a 15% saccharose solution the ^125 I-fibrinogen-plateletcomplex is isolated by centrifugation at 12,000 r/mn for 2 mn.
This table also presents the sequence of the peptides.

The test system of another assay is platelets. Put plainly: Inhibition of platelet aggregation (ADP-induced, washed platelets with fibrinogen). It counts as cell-based. The note with it: isolated human platelets, ADP 5×10^-6 M, fibrinogen 1.1×10^-6 M. As to the method: The effect of the synthetic peptides on platelet aggregation was studied on platelets isolated as previously described for the study of the binding to fibrinogen. The stimulation of the platelets was also brought about by 5×10^-6 M ADP and the assay was carried out in the presence of 1.1×10^-6 M fibrinogen and of […] CaCl2.

Residues, ends and D or L forms follow the SMILES beside them.

T1 sequence (P08514 32-887 limits assumed): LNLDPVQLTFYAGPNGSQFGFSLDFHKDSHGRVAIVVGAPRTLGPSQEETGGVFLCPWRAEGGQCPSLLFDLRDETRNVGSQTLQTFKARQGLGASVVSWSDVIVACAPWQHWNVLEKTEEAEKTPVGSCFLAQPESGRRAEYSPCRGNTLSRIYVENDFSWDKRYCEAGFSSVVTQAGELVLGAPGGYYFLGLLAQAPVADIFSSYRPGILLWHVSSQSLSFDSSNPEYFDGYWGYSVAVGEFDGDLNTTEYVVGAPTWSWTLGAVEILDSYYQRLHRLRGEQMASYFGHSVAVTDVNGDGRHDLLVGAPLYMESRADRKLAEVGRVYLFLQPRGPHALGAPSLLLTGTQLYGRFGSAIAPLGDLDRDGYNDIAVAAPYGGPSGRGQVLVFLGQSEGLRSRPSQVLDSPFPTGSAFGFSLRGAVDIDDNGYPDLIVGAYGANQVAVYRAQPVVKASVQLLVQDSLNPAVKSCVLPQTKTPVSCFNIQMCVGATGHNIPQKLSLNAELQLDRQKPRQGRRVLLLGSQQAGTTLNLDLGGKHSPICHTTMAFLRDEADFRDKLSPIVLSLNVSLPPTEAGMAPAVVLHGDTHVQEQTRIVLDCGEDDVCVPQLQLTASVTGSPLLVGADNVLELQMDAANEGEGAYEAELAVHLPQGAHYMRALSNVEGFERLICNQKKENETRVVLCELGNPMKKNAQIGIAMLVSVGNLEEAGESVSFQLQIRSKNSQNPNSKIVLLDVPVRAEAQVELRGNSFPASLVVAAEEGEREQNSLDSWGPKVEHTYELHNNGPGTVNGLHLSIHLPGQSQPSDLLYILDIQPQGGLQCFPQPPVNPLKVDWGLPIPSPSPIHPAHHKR
T1 sequence (P08514 891-1039 partner limits assumed): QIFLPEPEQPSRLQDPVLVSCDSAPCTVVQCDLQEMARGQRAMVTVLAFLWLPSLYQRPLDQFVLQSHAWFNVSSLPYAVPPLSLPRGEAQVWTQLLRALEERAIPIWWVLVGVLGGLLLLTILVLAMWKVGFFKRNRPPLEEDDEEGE
T1 sequence (P05106 27-788): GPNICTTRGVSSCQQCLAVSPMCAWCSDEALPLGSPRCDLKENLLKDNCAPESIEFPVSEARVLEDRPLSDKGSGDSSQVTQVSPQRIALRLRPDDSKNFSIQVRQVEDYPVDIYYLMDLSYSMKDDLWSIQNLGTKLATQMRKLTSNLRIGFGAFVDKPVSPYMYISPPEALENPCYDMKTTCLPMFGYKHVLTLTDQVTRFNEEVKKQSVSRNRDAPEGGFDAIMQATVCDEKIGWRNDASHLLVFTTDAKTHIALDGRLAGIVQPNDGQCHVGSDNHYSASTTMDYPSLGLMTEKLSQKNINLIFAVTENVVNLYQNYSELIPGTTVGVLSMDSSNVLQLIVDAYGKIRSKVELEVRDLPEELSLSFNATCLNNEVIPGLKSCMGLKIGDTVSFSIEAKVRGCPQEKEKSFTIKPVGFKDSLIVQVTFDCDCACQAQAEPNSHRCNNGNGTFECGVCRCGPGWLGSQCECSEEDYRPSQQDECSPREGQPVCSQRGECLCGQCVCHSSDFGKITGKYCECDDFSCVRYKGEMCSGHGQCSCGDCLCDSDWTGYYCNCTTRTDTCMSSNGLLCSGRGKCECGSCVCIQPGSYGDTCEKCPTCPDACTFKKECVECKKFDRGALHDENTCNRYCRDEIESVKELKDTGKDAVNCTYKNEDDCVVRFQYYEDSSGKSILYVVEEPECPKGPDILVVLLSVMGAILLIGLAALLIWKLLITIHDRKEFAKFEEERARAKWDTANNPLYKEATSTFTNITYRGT

Consider `N=C(N)NCCC[C@H](N)C(=O)NCC(=O)N[C@@H](CC(=O)O)C(=O)N[C@@H](Cc1ccccc1)C(=O)O` [RGDF, H-Arg-Gly-Asp-Phe-OH] (H-RGDF-OH), for which the IC50 (commonly the concentration needed to halve the response being measured) in assay [1] was determined as 7 µM; in the assay on platelets it was 15 µM.

Consider “H-LRGDF-OH [LRGDF, H-Leu-Arg-Gly-Asp-Phe-OH]”, for which the IC50 (in assay [1]; in the assay on platelets) was 20 µM throughout.

On to `N=C(N)NCCC[C@H](N)C(=O)NCC(=O)N[C@@H](CC(=O)O)C(=O)N[C@@H](Cc1c[nH]c2ccccc12)C(=O)O` [RGDW, H-Arg-Gly-Asp-Trp-OH] (H-RGDW-OH), for which the IC50 in the assay with platelets is 10 µM.

In turn, `NC(N)=NCCC[C@H](N)C(=O)NCC(=O)N[C@@H](CC(=O)O)C(=O)N[C@@H](Cc1c[nH]c2ccccc12)C(=O)O` [RGDW, H-Arg-Gly-Asp-Trp-OH] (H-RGDW-OH) displayed an IC50 in assay [1] of 3.6 µM.
